Like-named read-outs stand apart in the source and are kept apart here.
What was measured:
[1] = vitreous, human eye; cited from earlier work
[2] = Diffusion model of release from the therapeutic device reservoir through the porous structure
Text: The release rate of therapeutic agent 110 through a porous body, such as a sintered porous metal structure or a porous glass structure, may be described by diffusion of the therapeutic agent 110 within the porous structure 150 with the channel parameter, and with an effective diffusion coefficient equal to the diffusion coefficient of the therapeutic agent 110 in the liquid that fills the reservoir multiplied by the Porosity and a Channel Parameter of the porous body: Release Rate=(DP/F)A(cR−cV)/L, where: cR=Concentration in reservoir cV=Concentration outside of the reservoir or in the vitreous D=Diffusion coefficient of the therapeutic agent in the reservoir solution P=Porosity of porous structure F=Channel parameter that may correspond to a tortuosity parameter of channels of porous structure A=Area of porous structure L=Thickness (length) of porous structure Cumulative Release=1−cR/cR0=1−exp((−DPA/FLVR)t), where t=time, Vr=reservoir volume
A model can be derived to describe the release rate as a function of time by relating the change of concentration in the reservoir 140 to the release rate described above. This model assumes a solution of therapeutic agent 110 where the concentration in the reservoir 140 is uniform. In addition, the concentration in the receiving fluid or vitreous is considered negligible (cV=0). Solving the differential equation and rearrangement yields the following equations describing the concentration in the reservoir as a function of time, t, and volume of the reservoir, VR, for release of a therapeutic agent 110 from a solution in a reservoir though a porous structure 150. cR=cR0 exp((−DPA/FLVR)t) and Cumulative Release=1−cR/cR0
The molecular weight of the stabilizer can be provided in 1k Dalton increments from about 1k Dalton to about 200k Daltons and provide in a Table having about 200 rows similar to Table 2. The parameters of Table 2 determined such as the half-life in the device, the equivalent volume, the equivalent diameter, and % in the device at the half-life of the therapeutic agent 110. The table may comprise a row for each molecular weight in 1k Dalton increments, and the % of stabilizer in the device compared with the therapeutic agent 110. The table may include columns for two half-lives of the therapeutic agent, three half-lives of the therapeutic agent, four half-lives of the therapeutic agent, and the corresponding percentage of stabilizer remaining in the device.
FIG. 104 and Table 3 show concentrations of therapeutic agent, stabilizer and the ratio of stabilizer to therapeutic agent in accordance with an exemplary embodiment, for example. The concentrations and rations can be determined by a person of ordinary skill in the art based on the teachings described herein. […] Additional concentrations of the therapeutic agent can be used, for example greater amounts of therapeutic agent.

[3] = vitreous, monkey; cited from earlier work
[4] = vitreous, rabbit; cited from earlier work
[5] = Diffusion coefficients and equivalent size estimated from molecular weight; format: physicochemical; settings: for Diff Coeff: Table 2, 37 C, estimated from molecular weight; for D/(Ran D): diffusion relative to Ranibizumab
Text: If the reservoir solution is aqueous or has a viscosity similar to water, the value for the diffusion coefficient of the therapeutic agent (TA) in water at the temperature of interest may be used. […] (Molokhia et al, Exp Eye Res 2008): DTA,37C=DBSA,20C(η20C/η37C)(MWBSA/MWTA)^1/3 where MW refers to the molecular weight of either BSA or the test compound and η is the viscosity of water.
The diffusion constant of the stabilizer can be determined, for example, based on an estimate of hydrodynamic radius corresponding to the cube root of the molecular weight as described herein.
The diffusion coefficients of Table 2 can be determined based on weight for molecular weights up to about 2.5 M Daltons, and based on size above about 2.5 M Daltons.

[6] = assumes unit density, per molecule

Compound	half-life [1] [h]	Device Half-life relative to Ranibiz. [2]	half-life [3]	half-life [4]	Diff Coeff [5] [cm^2/s]	Equiv volume [5, 6] [nm^3]	D/(Ran D) [5]	Diff Coeff ([5]; listed as trehalose) [cm^2/s]	equivalent diameter [5, 6] [nm]	relative amount remaining in therapeutic device 100 [2]	relative half-life in device 100 ([2]; % of ranibizumab)	diffusion coefficient and rate of release through the porous structure relative to Ranibizumab ([2]; faster than Ranibizumab)
Ranibizumab	220	1.00	approximately 3 days	approximately 3 days								
N[C@@H](Cc1c[nH]cn1)C(=O)O [Histidine]		0.15			6.8E−06	0.3	6.75					
OC[C@H]1O[C@H](O[C@H]2O[C@H](CO)[C@@H](O)[C@H](O)[C@H]2O)[C@H](O)[C@@H](O)[C@@H]1O [Trehalose]		0.20			5.0E−06	0.6	5.03	~5.0E-6	~1.1	about 3.1%	about 20%	approx. 5 times
